Experimental data taken from article PMC11343776 (Clinical Pharmacokinetics, 2024).
Entries after “also recorded” stand apart in the source; their conditions may differ.

How the values were obtained:
[1] = healthy subjects; cited from earlier work
[2] = Population pharmacokinetic model of capivasertib plasma concentrations; assay type: in vivo, patients with advanced or metastatic solid tumours
[3] = Model simulations and covariate assessment; parameters: species or system patients with advanced or metastatic solid tumours; conditions: for decrease of CL/F after approximately 120 h: multiple doses
CYP3A = conditions: capivasertib 400 mg b.i.d., intermittent schedule; cited from earlier work
ROCK1/2 = assay: In vitro cellular kinase inhibition: ROCK1/2; assay type: cell-based
[4] = dose range 80–800 mg; cited from earlier work
CYP3A4 = conditions: single dose capivasertib 80 mg; cited from earlier work
[5] = 400 mg b.i.d. (4/3) after multiple doses
[6] = body weight 47 kg vs 67 kg reference

SMILES: NC1(C(=O)N[C@@H](CCO)c2ccc(Cl)cc2)CCN(c2nc[nH]c3nccc2-3)CC1 [capivasertib]
- renal clearance as share of total clearance [1]: 21%
- effective t½ ([2]; 400 mg b.i.d. (4/3)): 8.34 h
- apparent volume of distribution at steady state ([2]; at 400 mg): 255.6 L
- Lag1_tab absorption lag time for tablets ([2]; final model estimate, semi-fasted or fed): 0.21 h
- fraction of dose absorbed by zero-order process ([2]; oral): 20%
- fraction of dose absorbed using the first-order mechanism ([2]; oral): 80%
- time to maximum concentration ([2]; slight variations with dose level, body weight, food status): 1.4 h
- median AUC12h,ss [3, 5]: 7730 ng·h/mL
- median Cmax,ss [3, 5]: 1340 ng/mL
- decrease of CL/F after approximately 120 h ([3]; 400 mg b.i.d.): 18%
- decrease of CL/F after approximately 120 h ([3]; 480 mg b.i.d.): 22%
- dose proportionality of AUC and Cmax ([3]; 80–480 mg after multiple doses): proportional; also recorded: approximately proportionally
- dose proportionality of AUC and Cmax ([3]; beyond 480 mg after multiple doses): more than proportional; also recorded: more than proportionally
- increase in AUC12h,ss [3, 6]: 14%
- increase in Cmax,ss [3, 6]: 14%
- reduction in CLss/F [3, 6]: 12%
- predicted impact of significant covariates on exposure to capivasertib ([3]; body weight, dose, paclitaxel, food, formulation): < 20%
- increase in CLss/F ([3]; concomitant paclitaxel vs no paclitaxel): 20%
- time after which steady state is achieved ([3]; simulations, three schedules, different dose levels): approximately 120 h
- increase in midazolam exposure (CYP3A): up to 75%
- inhibition of ROCK-mediated phosphorylation of cofilin (ROCK1/2): not effective
- dose proportionality of plasma exposure [4]: approximately dose proportional
- terminal half-life (t½) [4]: approximately 10 hours
- terminal half-life (t½), range [4]: 7 to 15 h
- increase of capivasertib AUC by itraconazole (CYP3A4): 95%
